Laboratory results from PubChem BioAssay (NCI).
Values joined by “and” are separate entries in the source; they are usually repeats but may differ in a detail not shown here. Equal entries are not always repeated.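 Method: 48-hour compound exposure of cells in 96-well plates, five concentrations, linear interpolation of endpoints. Here, GI50 denotes the concentration required for 50% inhibition of growth. The concentration for full growth arrest is given as TGI.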

Experiments:
Assay in all cases: NCI anticancer screen, dose series, 48 h
NCI-H460 lung = tested on: NCI-H460 lung
RPMI-8226 leukemia = tested on: RPMI-8226 leukemia
NCI-H226 lung = tested on: NCI-H226 lung
SW-620 colon = tested on: SW-620 colon
OVCAR-8 ovarian = tested on: OVCAR-8 ovarian
NCI-H23 lung = tested on: NCI-H23 lung
SR leukemia = tested on: SR leukemia
MDA-MB-435 = tested on: MDA-MB-435
BT-549 breast = tested on: BT-549 breast
MOLT-4 leukemia = tested on: MOLT-4 leukemia

| SMILES | GI50 (NCI-H460 lung) | TGI (NCI-H460 lung) | GI50 (RPMI-8226 leukemia) | TGI (RPMI-8226 leukemia) | GI50 (NCI-H226 lung) | TGI (NCI-H226 lung) | GI50 (SW-620 colon) | TGI (SW-620 colon) | GI50 (OVCAR-8 ovarian) | TGI (OVCAR-8 ovarian) | GI50 (NCI-H23 lung) | TGI (NCI-H23 lung) | GI50 (SR leukemia) | TGI (SR leukemia) | GI50 (MDA-MB-435) | TGI (MDA-MB-435) | GI50 (BT-549 breast) | TGI (BT-549 breast) | GI50 (MOLT-4 leukemia) | TGI (MOLT-4 leukemia) |
| --- | --- | --- | --- | --- | --- | --- | --- | --- | --- | --- | --- | --- | --- | --- | --- | --- | --- | --- | --- | --- |
| O=C(CCCc1c[nH]c2ccccc12)NC1CC(=O)c2c(Br)sc(Br)c21 (stereo not drawn) | 19.2 µM | 38.7 µM | 4.37 µM | > 100 µM | 19.6 µM | 35.5 µM | 18.8 µM | 41 µM | 9.41 µM | > 100 µM | 12.2 µM | 26.1 µM | 2.62 µM | 6.79 µM | 17.8 µM | 57.3 µM | 17.4 µM | 37.1 µM | 10.2 µM | 55.4 µM |
| C[C@@H](c1ccc2nccn2c1)n1nnc2ncc(-c3cnn(C)c3)nc21 | > 100 µM | > 100 µM | 47.6 µM | > 100 µM | > 100 µM | > 100 µM | > 100 µM | > 100 µM | > 100 µM | > 100 µM | > 100 µM | > 100 µM | 49.9 µM | > 100 µM | > 100 µM | > 100 µM | 91.7 µM | > 100 µM | > 100 µM | > 100 µM |
| COc1cc(CCc2cc(NC(=O)c3ccc(N4C[C@@H](C)N[C@@H](C)C4)cc3)n[nH]2)cc(OC)c1 | 6.39 µM and 4.16 µM | > 10 µM and 14.8 µM | 4.82 µM and 4.65 µM | > 10 µM and 19.6 µM |  | > 10 µM and 21.3 µM | 6.49 µM and 3.5 µM | > 10 µM and 15.6 µM | > 10 µM and 9.01 µM | > 10 µM and 25.7 µM | > 10 µM and 3.98 µM | > 10 µM and 17.3 µM | 3.75 µM and 2.34 µM | > 10 µM and 5.42 µM | 6.15 µM and 3.48 µM | > 10 µM and 14.2 µM | 5.58 µM and 1.08 µM | > 10 µM and 17.2 µM | 4.38 µM and 3.69 µM | > 10 µM and 13.2 µM |
| O=C1c2cc3c(cc2-c2c1c1cc(Cl)c(Cl)cc1c(=O)n2CCCn1ccnc1)OCO3 | < 0.01 µM | > 100 µM | < 0.01 µM | 10.4 µM | < 0.01 µM |  | < 0.01 µM | > 100 µM | < 0.01 µM | > 100 µM | < 0.01 µM | 0.232 µM | < 0.01 µM | 1.67 µM | 0.0162 µM | > 100 µM | 0.0114 µM | 28.1 µM | < 0.01 µM | 10.9 µM |
| CCCCCCCCCCCCCCCCCCNC(=O)[C@H]1CSC(c2ccc(OC)c(F)c2)N1 (stereo partly drawn) | 0.606 µM | 2.02 µM | 0.435 µM | 1.91 µM | 2.28 µM | 6.86 µM | 1.5 µM | 5.71 µM | 2.56 µM | 11.4 µM | 7.22 µM | 27 µM | 0.641 µM | 2.88 µM | 1.22 µM | 2.91 µM | 1.71 µM | 4.04 µM | 1.48 µM | 9.18 µM |
| COc1cc(C(=O)O)c([N+](=O)[O-])c(OC)c1OC |  | > 100 µM |  | > 100 µM |  | > 100 µM |  | > 100 µM |  | > 100 µM |  | > 100 µM |  | > 100 µM |  | > 100 µM |  | > 100 µM |  | > 100 µM |
| Cc1cc2c(C)c3cc(C)c(N)cc3nc2cc1N | 0.332 µM | 1.34 µM | 1.33 µM | 5.92 µM | 0.864 µM | 4.56 µM | 0.38 µM | 3.57 µM | 0.499 µM | 7.54 µM | 0.852 µM | 4.28 µM | 0.507 µM | 4.2 µM | 1.06 µM | 5.93 µM | 3.12 µM | 11.6 µM | 0.43 µM | 6.23 µM |
| Cc1cc(NC(=O)C2c3ccccc3C(=O)N(CC(C)C)C2c2cccs2)no1 (stereo not drawn) | > 100 µM | > 100 µM | 45.5 µM | > 100 µM | > 100 µM | > 100 µM | > 100 µM | > 100 µM | > 100 µM | > 100 µM | > 100 µM | > 100 µM | 35.5 µM | > 100 µM | 33.7 µM | > 100 µM | > 100 µM | > 100 µM | 43.1 µM | > 100 µM |
